Here are results for two compounds from patent US20240368163A1, “COMPOUNDS AND METHODS FOR MODULATING SPLICING” (REMIX THERAPEUTICS INC., priority 2021, published 2024).

The test system of the data set is MDCK-BCRP or MDCKII-MDR1 cells. The data set is described as follows: Transwell assay for membrane efflux and permeability. As to conditions: test compound 1 μM, 2 hours at 37° C. Type of data set: in vitro ADME, Canine. The essentials:
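MDCK-BCRP or MDCKII-MDR1 monolayers grown 4-8 days on transwell supports, washed and pre-equilibrated in HBSS 30 min at 37 °C with shaking. Test compounds at 1 μM final (0.5% DMSO) in HBSS; transport incubation 2 h at 37 °C.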

Take `Fc1cc(-c2ccc(OC3CC4CC(F)(F)C(C3)N4)nn2)c2[nH]ncc2c1-c1cn[nH]c1` (stereo not drawn) [Compound 313, 7-[6-({6,6-difluoro-8-azabicyclo[3.2.1]octan-3-yl}oxy)pyridazin-3-yl]-5-fluoro-4-(1H-pyrazol-4-yl)-1H-indazole]: the “Permeability (Papp)” value was “C (C represents a Papp greater than 6×10^−6 cm S^−1)”.
Consider `CN(c1ccc(-c2ccc(-c3cn[nH]c3)c3ncsc23)nn1)[C@H]1C[C@H]2COC[C@@H](C1)N2` [Compound 356, (endo)-N-methyl-N-{6-[4-(1H-pyrazol-4-yl)-1,3-benzothiazol-7-yl]pyridazin-3-yl}-3-oxa-9-azabicyclo[3.3.1]nonan-7-amine], for which the “Efflux Ratio” value is listed as “C (C represents a ratio greater than 5)” and the “Permeability (Papp)” value is listed as “A (A represents a Papp <2×10^−6 cm s^−1)”.
